Legend:
[1] = 3 patients; cited from earlier work
U-251SP cells = experiment: In vitro bystander tumoricidal effect, coculture of transduced and non-transduced cells; format: cell-based, human; conditions: 4.5 μg/mL ganciclovir, 3 days
Protocol: FIG. 3 depicts the in vitro cytocidal bystander effect observed in non-transduced cells that were cultured with HSV-tk transduced cells as described in Example 3. Cell co-cultures containing a total of 1×10^4 cells were formed by combining cells that were transduced with rAAVtk-IRES-hIL2 virions at the following ratios: 1:0, 1:1, 1:10, 1:100 and 0:1 (transduced:nontransduced cells). After a 24 hour incubation, the co-cultures were exposed to 4.5 μg/mL of ganciclovir and allowed to incubate for an additional 3 days. Numbers of living cells were counted using the trypan blue dye exclusion method. The Figure indicates % cell survival compared to the cultures containing only non-transduced cells (0:1). The data is presented a mean +/− a standard error deviation based on duplicate experiments.
In order to assess the in vitro bystander tumoricidal effect of HSV-tk transduced cells on neighboring non-transduced cells, the following study was carried out. U-251SP cells were incubated for 12 hours in DMEM medium containing rAAVtk-IRES-hIL2 virions at a MOI of 1.9×10^6. Since this MOI was greater than the MOI determined necessary for 100% transduction by the rAAVlacZ virions (e.g., 3×10^5 as determined above in Example 1), the incubated cells were considered to be 100% transduced. The rAAVtk-IRES-hIL2 transduced cells were cocultured with non-transduced U-251SP cells at ratios of 1:0, 1:1, 1:10, 1:100 and 0:1 (transduced:nontransduced cells) to provide 1×10^4 total cells per well in a 24 well tissue culture plate. 24 hours after the coculture was initiated, 4.5 μg/mL of ganciclovir (DENOSINE® Roche, Basel, Switzerland) was added to each well in fresh media. After 3 days, the numbers of living cells were determined using the trypan blue dye exclusion method.

[2] = tested on: human U-251SP glioma cells; experiment: In vitro sensitivity of rAAVtk-IRES-hIL2-transduced cells to ganciclovir; format: cell-based
Protocol: More particularly, transduced cells were exposed to varying amounts of GCV to assess their sensitivity to the pro-drug. In the study 1×10^4 human U-251SP glioma cells were incubated for 12 hours with rAAVtk-IRES-hIL2 at MOIs of 0, 3×10^2, 3×10^3, 3×10^4, 3×10^5, and 3×10^6. The transduced cells were then incubated for an additional 72 hours in fresh medium containing serial dilutions of GCV at a final concentration of from 0.1-100 μg/mL.
In order to determine if cells transduced with the HSV-tk gene had enhanced susceptibility to the cytocidal effects of GCV, the following study was carried out. Recombinant AAV virion-transduced cells were exposed to varying amounts of GCV to assess their sensitivity to the drug. Particularly, 1×10^4 human U-251SP glioma cells/well (cultured in 200 μL of complete medium) were incubated with various concentrations of rAAVtk-IRES-hIL2 (at MOIs of 0, 3×10^2, 3×10^3, 3×10^4, 3×10^5, and 3×10^6) for 12 hours. The transduced cells were then incubated for an additional 72 hours in fresh medium containing serial dilutions of GCV at a final concentration of from 0.1-100 μg/mL. The numbers of living cells were then determined using the trypan blue dye exclusion method, and compared with those of nontransduced cells cultured without GCV treatment.

Nc1nc(O)c2ncn(COC(CO)CO)c2n1 [GCV, ganciclovir]
concentration in the CSF [1]: 310 to 680 ng/mL | concentration in the plasma [1]: 440 to 2200 ng/mL | tumoricidal effect compared with only non-transduced cells (0:1) (U-251SP cells; 1% rAAVtk-IRES-hIL2-transduced cells (1:100)): 15.1% | tumoricidal effect compared with only non-transduced cells (0:1) (U-251SP cells; 10% rAAVtk-IRES-hIL2-transduced cells (1:10)): 58.1% | sensitivity to GCV killing (U-251SP cells; 50% rAAVtk-IRES-hIL2-transduced cells (1:1)): as sensitive to GCV killing as were cultures containing 100% transduced cells | inhibition ([2]; 4.5 μg/mL of GCV, rAAVtk-IRES-hIL2 at a MOI of 3×10^3): more than 80% | IC50 ([2]; Homo sapiens, Glioma cell, GCV 72 hours, cells exposed to rAAVtk-IRES-hIL2 at a MOI of 3×10^3 or greater, read-out: TCID50): < 0.28 µg/mL | effect on cell growth ([2]; high doses of GCV, non-transduced cells): mild inhibitory effect

From patent US6531456B1, “Gene therapy for the treatment of solid tumors using recombinant adeno-associated virus vectors” (Avigen, Inc., priority 1996, dated 2003)
